Results as given in patent publication US11014911B2, “CDK2 inhibitors” (Pfizer Inc., priority 2019, dated 2021).

Target: CDK2/Cyclin E1 full length (Homo sapiens (Human), UniProt P24941)
Experiment: CDK2/Cyclin E1 full length mobility shift assay
Type: biochemical

| Ki | Structure (SMILES) |
| --- | --- |
| 1.3 nM | CC(C)(C)NC(=O)O[C@@H]1CC[C@H](c2cc(NC(=O)Cc3cc(C(F)(F)F)ccn3)n[nH]2)C1 [Example 316, (1R,3S)-3-[3-({[4-(trifluoromethyl)pyridin-2-yl]acetyl}amino)-1H-pyrazol-5-yl]cyclopentyl tert-butylcarbamate] |
| 3.71 nM | COc1ccc(CC(=O)Nc2cc([C@H]3CC[C@@H](OC(=O)NC4CCOCC4)C3)[nH]n2)cc1 [Example 502, (1R,3S)-3-(3-{[(4-methoxyphenyl)acetyl]amino}-1H-pyrazol-5-yl)cyclopentyl tetrahydro-2H-pyran-4-ylcarbamate] |
| 1.85 nM | CCCNC(=O)O[C@@H]1CC[C@H](c2cc(NC(=O)Cc3ccccc3S(C)(=N)=O)n[nH]2)C1 (single isomer, unassigned) [Example 202] |
| 0.97 nM | Cc1cc(CC(=O)Nc2cc([C@@H]3CC[C@H](OC(=O)NC(C)C)C3)[nH]n2)no1 [Example 268, (1S,3R)-3-(3-{[(5-methyl-1,2-oxazol-3-yl)acetyl]amino}-1H-pyrazol-5-yl)cyclopentyl propan-2-ylcarbamate] |
| 0.41 nM | CC[C@H](C)NC(=O)O[C@@H]1CC[C@H](c2cc(NC(=O)Cc3ccccc3S(C)(=N)=O)n[nH]2)C1 (single isomer, unassigned) [Example 368] |
| 3.02 nM | CC(C)NC(=O)O[C@@H]1CC[C@H](c2cc(NC(=O)Cc3ccn(C)n3)n[nH]2)C1 [Example 267, (1R,3S)-3-(3-{[(1-methyl-1H-pyrazol-3-yl)acetyl]amino}-1H-pyrazol-5-yl)cyclopentyl propan-2-ylcarbamate] |
| 1.21 nM | CCCNC(=O)O[C@@H]1CC[C@H](c2cc(NC(=O)Cc3ccccc3S(=O)(=O)NC)n[nH]2)C1 [Example 209, (1R,3S)-3-[3-({[2-(methylsulfamoyl)-phenyl]acetyl}amino)-1H-pyrazol-5-yl]cyclopentyl propylcarbamate] |
| 0.15 nM | COCCn1nccc1C(=O)Nc1cc([C@H]2CC[C@@H](OC(=O)NC(C)CC(F)(F)F)C2)[nH]n1 (single isomer, unassigned) [Example 88] |
| 2.23 nM | CC(=O)N1CCC(CNC(=O)O[C@H]2CC[C@@H](c3cc(NC(=O)Cc4cc(F)cc(F)c4)n[nH]3)C2)CC1 [Example 582, (1S,3R)-3-(3-{[(3,5-difluorophenyl)acetyl]amino}-1H-pyrazol-5-yl)cyclopentyl [(1-acetylpiperidin-4-yl)methyl]carbamate] |
| 0.19 nM | CC[C@H](C)NC(=O)O[C@@H]1CC[C@H](c2cc(NC(=O)Cc3ccccc3S(N)(=O)=O)n[nH]2)C1 [Example 49] |
| 2.57 nM | C[C@H]1CCN1C(=O)O[C@@H]1CC[C@H](c2cc(NC(=O)c3cncn3C)n[nH]2)C1 [Example 585, (1R,3S)-3-(3-{[(1-methyl-1H-imidazol-5-yl)carbonyl]amino}-1H-pyrazol-5-yl)cyclopentyl (2S)-2-methylazetidine-1-carboxylate] |
| 2.21 nM | CC(CC(F)(F)F)NC(=O)O[C@@H]1CC[C@H](c2cc(NC(=O)Cc3ccn(C)n3)n[nH]2)C1 (single isomer, unassigned) [Example 65] |
| 0.48 nM | Cc1cc(CC(=O)Nc2cc([C@H]3CC[C@@H](OC(=O)N4CCCC[C@@H]4C)C3)[nH]n2)on1 [Example 640, (1R,3S)-3-(3-{[(3-methyl-1,2-oxazol-5-yl)acetyl]amino}-1H-pyrazol-5-yl)cyclopentyl (2S)-2-methylpiperidine-1-carboxylate] |
| 1.6 nM | O=C(Cc1cc(F)cc(F)c1)Nc1cc([C@H]2CC[C@@H](OC(=O)NC3CCOCC3)C2)[nH]n1 [Example 505, (1R,3S)-3-(3-{[(3,5-difluorophenyl)acetyl]amino}-1H-pyrazol-5-yl)cyclopentyl tetrahydro-2H-pyran-4-ylcarbamate] |
| 1.51 nM | CCC(CO)CNC(=O)O[C@@H]1CC[C@H](c2cc(NC(=O)Cc3ccc(OC)cc3)n[nH]2)C1 (single isomer, unassigned) [Example 531] |
| 2.35 nM | CC(CO)CNC(=O)O[C@@H]1CC[C@H](c2cc(NC(=O)Cc3cc(F)cc(F)c3)n[nH]2)C1 (single isomer, unassigned) [Example 539] |
| 1.43 nM | C[C@H]1CCCN1C(=O)O[C@@H]1CC[C@H](c2cc(NC(=O)Cc3ccccn3)n[nH]2)C1 [Example 630, (1R,3S)-3-{3-[(pyridin-2-ylacetyl)amino]-1H-pyrazol-5-yl}cyclopentyl (2S)-2-methylpyrrolidine-1-carboxylate] |
| 3.45 nM | CCCNC(=O)O[C@H]1CC[C@@H](c2cc(NC(=O)Cc3cn4c(C)csc4n3)n[nH]2)C1 [Example 199, (1S,3R)-3-(3-{[(3-methylimidazo[2,1-b][1,3]thiazol-6-yl)acetyl]amino}-1H-pyrazol-5-yl)cyclopentyl propylcarbamate] |
| 2.62 nM | Cc1csc(CC(=O)Nc2cc([C@H]3CC[C@@H](OC(=O)NC(C)C)C3)[nH]n2)n1 [Example 274, (1R,3S)-3-(3-{[(4-methyl-1,3-thiazol-2-yl)acetyl]amino}-1H-pyrazol-5-yl)cyclopentyl propan-2-ylcarbamate] |
| 1.9 nM | Cc1cc(CC(=O)Nc2cc([C@H]3CC[C@@H](OC(=O)N4[C@H](C)C[C@@H]4C)C3)[nH]n2)on1 [Example 607, (1R,3S)-3-(3-{[(3-methyl-1,2-oxazol-5-yl)acetyl]amino}-1H-pyrazol-5-yl)cyclopentyl (2R,4S)-2,4-dimethylazetidine-1-carboxylate] |
| 0.8 nM | CCCNC(=O)O[C@H]1CC[C@@H](c2cc(NC(=O)Cc3ccnc(OC)c3O)n[nH]2)C1 [Example 194, (1S,3R)-3-(3-{[(3-hydroxy-2-methoxypyridin-4-yl)acetyl]amino}-1H-pyrazol-5-yl)cyclopentyl propylcarbamate] |

| Structure (SMILES) | Ki |
| --- | --- |
| CC[C@H](C)NC(=O)O[C@@H]1CC[C@H](c2cc(NC(=O)Cc3cn(CC(F)(F)F)nn3)n[nH]2)C1 [Example 366, (1R,3S)-3-[3-({[1-(2,2,2-trifluoroethyl)-1H-1,2,3-triazol-4-yl]acetyl}amino)-1H-pyrazol-5-yl]cyclopentyl (2S)-butan-2-ylcarbamate] | 1.79 nM |
| COC[C@H](C)NC(=O)O[C@@H]1CC[C@H](c2cc(NC(=O)c3cc(OC)nn3C)n[nH]2)C1 [Example 518, (1R,3S)-3-(3-{[(3-methoxy-1-methyl-1H-pyrazol-5-yl)carbonyl]amino}-1H-pyrazol-5-yl)cyclopentyl [(2S)-1-methoxypropan-2-yl]carbamate] | 1.43 nM |
| COc1cc(C(=O)Nc2cc([C@H]3CC[C@@H](OC(=O)NC4(C)CCOC4)C3)[nH]n2)n(C)n1 (single isomer, unassigned) [Example 479] | 0.89 nM |
| Cc1cnc(CC(=O)Nc2cc([C@H]3CC[C@@H](OC(=O)NC4(C)CC4)C3)[nH]n2)c(Cl)c1 [Example 438, (1R,3S)-3-(3-{[(3-chloro-5-methylpyridin-2-yl)acetyl]amino}-1H-pyrazol-5-yl)cyclopentyl (1-methylcyclopropyl)carbamate] | 2.5 nM |
| CC[C@H](C)CNC(=O)O[C@@H]1CC[C@H](c2cc(NC(=O)Cc3cnc(C)o3)n[nH]2)C1 [Example 416, (1R,3S)-3-(3-{[(2-methyl-1,3-oxazol-5-yl)acetyl]amino}-1H-pyrazol-5-yl)cyclopentyl [(2S)-2-methylbutyl]carbamate] | 2.27 nM |
| Cc1cc(CC(=O)Nc2cc([C@H]3CC[C@@H](OC(=O)NC4(C)CC4)C3)[nH]n2)ncc1Cl [Example 440, (1R,3S)-3-(3-{[(5-chloro-4-methylpyridin-2-yl)acetyl]amino}-1H-pyrazol-5-yl)cyclopentyl (1-methylcyclopropyl)carbamate] | 1.47 nM |
| COC[C@H](C)NC(=O)O[C@@H]1CC[C@H](c2cc(NC(=O)Cc3ccc(OC)nc3)n[nH]2)C1 [Example 519, (1R,3S)-3-(3-{[(6-methoxypyridin-3-yl)acetyl]amino}-1H-pyrazol-5-yl)cyclopentyl [(2S)-1-methoxypropan-2-yl]carbamate] | 0.56 nM |
| COc1ccc(S(C)(=O)=O)c(CC(=O)Nc2cc([C@H]3CC[C@@H](OC(=O)NCCC(F)(F)F)C3)[nH]n2)c1 [Example 224, (1R,3S)-3-[3-({[5-methoxy-2-(methylsulfonyl)phenyl]acetyl}amino)-1H-pyrazol-5-yl]cyclopentyl (3,3,3-trifluoropropyl)carbamate] | 0.31 nM |
| Cc1cc(CC(=O)Nc2cc([C@H]3CC[C@@H](OC(=O)NC4(C)CC4)C3)[nH]n2)no1 [Example 7, (1R,3S)-3-(3-{[(5-methyl-1,2-oxazol-3-yl)acetyl]amino}-1H-pyrazol-5-yl)cyclopentyl (1-methylcyclopropyl)carbamate] | 0.61 nM |
| Cc1nnc(CC(=O)Nc2cc([C@H]3CC[C@@H](OC(=O)NC4(C)CCC4)C3)[nH]n2)o1 [Example 459, (1R,3S)-3-(3-{[(5-methyl-1,3,4-oxadiazol-2-yl)acetyl]amino}-1H-pyrazol-5-yl)cyclopentyl (1-methylcyclobutyl)carbamate] | 0.32 nM |
| O=C(Cc1ccc(C(F)(F)F)nc1)Nc1cc([C@@H]2CC[C@H](OC(=O)NC[C@H]3C[C@H](O)C3)C2)[nH]n1 [Example 577, (1S,3R)-3-[3-({[6-(trifluoromethyl)pyridin-3-yl]acetyl}amino)-1H-pyrazol-5-yl]cyclopentyl[(trans-3-hydroxycyclobutyl)methyl]-carbamate] | 3.36 nM |
| CC(C)NC(=O)O[C@@H]1CC[C@H](c2cc(NC(=O)Cc3cccc4ncsc34)n[nH]2)C1 [Example 284, (1R,3S)-3-{3-[(1,3-benzothiazol-7-ylacetyl)amino]-1H-pyrazol-5-yl}cyclopentyl propan-2-ylcarbamate] | 0.6 nM |
| Cc1nc(CC(=O)Nc2cc([C@H]3CC[C@@H](OC(=O)NC(C)C)C3)[nH]n2)ccc1Cl [Example 282, (1R,3S)-3-(3-{[(5-chloro-6-methylpyridin-2-yl)acetyl]amino}-1H-pyrazol-5-yl)cyclopentyl propan-2-ylcarbamate] | 2.34 nM |
| COc1ccc(S(C)(=O)=O)c(CC(=O)Nc2cc([C@H]3CC[C@@H](OC(=O)NC(C)C)C3)[nH]n2)c1 [Example 288, (1R,3S)-3-[3-({[5-methoxy-2-(methylsulfonyl)phenyl]acetyl}amino)-1H-pyrazol-5-yl]cyclopentyl propan-2-ylcarbamate] | 0.39 nM |
